Experimental data published in US5057146A (priority 1986, dated 1991).
Read-outs that look alike come from different tables or passages of the source.

Columns and labels:
Puccinia recondita = experiment: foliar fungal disease control, Puccinia recondita on wheat; format: in vivo
Protocol: (§1) The compounds were tested against a variety of foliar fungal diseases of plants. The technique employed was as follows.
(§2) The plants were grown in John Innes Potting Compost (No 1 or 2) in 4 cm diameter minipots. The test compounds were formulated either by bead milling with aqueous Dispersol T or as a solution in acetone or acetone/ethanol which was diluted to the required concentration immediately before use. […] The sprays were applied to maximum retention and the root drenches to a final concentration equivalent to approximately 40 ppm a.i./dry soil. Tween 20, to give a final concentration of 0.05%, was added when the sprays were applied to cereals.
(§3) For most of the tests the compound was applied to the soil (roots) and to the foliage (by spraying) one or two days before the plant was inoculated with the disease. An exception was the test on Erysiphe graminis in which the plants were inoculated 24 hours before treatment. Foliar pathogens were applied by spray as spore suspensions onto the leaves of test plants. After inoculation, the plants were put into an appropriate environment to allow infection to proceed and then incubated until the disease was ready for assessment. The period between inoculation and assessment varied from four to fourteen days according to the disease and environment.
(§4) The disease control was recorded by the following grading: […]

Erysiphe graminis hordei = experiment: foliar fungal disease control, Erysiphe graminis hordei on barley; format: in vivo; details: inoculated 24 hours before treatment
Protocol: as §1, §2, §3, §4

Venturia inaequalis = experiment: foliar fungal disease control, Venturia inaequalis on apple; format: in vivo
Protocol: as §1, §2, §3, §4

Pyricularia oryzae = format: in vivo, Pyricularia oryzae (rice)
Cercospora arachidicola = experiment: foliar fungal disease control, Cercospora arachidicola on peanut; format: in vivo
Protocol: as §1, §2, §3, §4

Plasmopara viticola = experiment: foliar fungal disease control, Plasmopara viticola on vine; format: in vivo
Protocol: as §1, §2, §3, §4

Phytophthora infestans = format: in vivo, Phytophthora infestans (tomato)
[1] = 100 ppm foliar spray plus root drench approx. 40 ppm a.i./dry soil

Compound | disease control grading, Puccinia recondita (wheat) (Puccinia recondita; [1]) | disease control grading, Erysiphe graminis hordei (barley) (Erysiphe graminis hordei; [1]) | disease control grading, Venturia inaequalis (apple) (Venturia inaequalis; [1]) | disease control grading, Pyricularia oryzae (rice) (Pyricularia oryzae; [1]) | disease control grading, Cercospora arachidicola (peanut) (Cercospora arachidicola; [1]) | disease control grading, Plasmopara viticola (vine) (Plasmopara viticola; [1]) | disease control grading, Phytophthora infestans (tomato) (Phytophthora infestans; [1]) | other results
CO/C=C(/C(=O)OC)c1ccccc1[S+]([O-])c1ccc(Br)cn1 (stereo not shown) [Compound 1 (Table III), (E)--methyl 2-(2'-(5"-bromopyridin-2"-ylsulphinyl)phenyl]-3-methoxyacrylate] | – | – | – | – | – | – | – | disease control grading, Puccinia recondita (wheat) (Puccinia recondita; 25 ppm foliar spray only): 0 (60-100% of disease on untreated plants); disease control grading, Erysiphe graminis hordei (barley) (Erysiphe graminis hordei; 25 ppm foliar spray only): 0 (60-100% of disease on untreated plants); disease control grading, Venturia inaequalis (apple) (Venturia inaequalis; 25 ppm foliar spray only): 3 (trace-5% of disease on untreated plants); disease control grading, Pyricularia oryzae (rice) (Pyricularia oryzae; 25 ppm foliar spray only): 0 (60-100% of disease on untreated plants); disease control grading, Cercospora arachidicola (peanut) (Cercospora arachidicola; 25 ppm foliar spray only): 0 (60-100% of disease on untreated plants); disease control grading, Plasmopara viticola (vine) (Plasmopara viticola; 25 ppm foliar spray only): 0 (60-100% of disease on untreated plants); disease control grading, Phytophthora infestans (tomato) (Phytophthora infestans; 25 ppm foliar spray only): 0 (60-100% of disease on untreated plants)
CO/C=C(/C(=O)OC)c1ccccc1S(=O)(=O)c1ccc(Br)cn1 [Compound 2 (Table III), (E)-meth-yl 2-(2'-(5"-bromopyridin-2"-ylsulphonyl)phenyl]-3-methoxyacrylate] | 3 (trace-5% of disease on untreated plants) | 0 (60-100% of disease on untreated plants) | 3 (trace-5% of disease on untreated plants) | 0 (60-100% of disease on untreated plants) | 0 (60-100% of disease on untreated plants) | 0 (60-100% of disease on untreated plants) | 0 (60-100% of disease on untreated plants) | –
CO/C=C(/C(=O)OC)c1ccccc1Oc1cc(C)ccn1 [Compound 10 (Table I)] | 4 | 4 | 4 | 4 | 3 (trace-5% of disease on untreated plants) | 4 | 4 | –
CO/C=C(/C(=O)OC)c1ccccc1Oc1cc(C(F)(F)F)ccn1 [Compound 11 (Table I)] | – | – | – | – | – | – | – | disease control grading, Puccinia recondita (wheat) (Puccinia recondita; 25 ppm foliar spray only): 3 (trace-5% of disease on untreated plants); disease control grading, Erysiphe graminis hordei (barley) (Erysiphe graminis hordei; 25 ppm foliar spray only): 4; disease control grading, Venturia inaequalis (apple) (Venturia inaequalis; 25 ppm foliar spray only): 4; disease control grading, Pyricularia oryzae (rice) (Pyricularia oryzae; 25 ppm foliar spray only): 2 (6-25% of disease on untreated plants); disease control grading, Cercospora arachidicola (peanut) (Cercospora arachidicola; 25 ppm foliar spray only): 0 (60-100% of disease on untreated plants); disease control grading, Plasmopara viticola (vine) (Plasmopara viticola; 25 ppm foliar spray only): 4; disease control grading, Phytophthora infestans (tomato) (Phytophthora infestans; 25 ppm foliar spray only): 4
CO/C=C(/C(=O)OC)c1ccccc1Sc1ccc(Cl)cn1 [Compound 14 (Table II), (E-)-methyl 2-[2'-(5"-chloropyridin-2"-ylthio)phenyl]-3-methoxyacrylate] | 4 | 4 | 4 | 3 (trace-5% of disease on untreated plants) | 4 | 4 | 0 (60-100% of disease on untreated plants) | –
CO/C=C(/C(=O)OC)c1ccccc1Sc1ccc(Br)cn1 [Compound 15 (Table II), (E)-methyl 2-[2'-(5"-bromopyridin-2"-ylthio)phenyl]-3-methoxyacrylate] | 2 (6-25% of disease on untreated plants) | 3 (trace-5% of disease on untreated plants) | 0 (60-100% of disease on untreated plants) | 0 (60-100% of disease on untreated plants) | 1 (26-59% of disease on untreated plants) | 4 | 0 (60-100% of disease on untreated plants) | –
CO/C=C(/C(=O)OC)c1ccccc1Oc1ccc(C)cn1 [Compound 16 (Table I)] | 2 (6-25% of disease on untreated plants) | 4 | 4 | 4 | 4 | 4 | 4 | –
CO/C=C(/C(=O)OC)c1ccccc1Oc1cccc(C)n1 [Compound 21 (Table I)] | 3 (trace-5% of disease on untreated plants) | 4 | 4 | 4 | 4 | 4 | 3 (trace-5% of disease on untreated plants) | –
CO/C=C(/C(=O)OC)c1ccccc1Oc1cccc(C(F)(F)F)n1 [Compound 22 (Table I)] | 4 | 4 | 4 | 4 | 4 | 4 | 3 (trace-5% of disease on untreated plants) | –
CO/C=C(/C(=O)OC)c1ccccc1Oc1nccc(Cl)n1 [Compound 61 (Table I), (E)-methyl 2-[2'-(4"-chloropyrimidin-2"-yloxy)phenyl]-3-methoxyacrylate] | 3 (trace-5% of disease on untreated plants) | 4 | 4 | 0 (60-100% of disease on untreated plants) | 4 | 1 (26-59% of disease on untreated plants) | 0 (60-100% of disease on untreated plants) | –
CO/C=C(/C(=O)OC)c1ccccc1Oc1ncc(Cl)cn1 [Compound 67 (Table I)] | – | – | – | – | – | – | – | disease control grading, Puccinia recondita (wheat) (Puccinia recondita; 40 ppm foliar spray only): 3 (trace-5% of disease on untreated plants); disease control grading, Erysiphe graminis hordei (barley) (Erysiphe graminis hordei; 40 ppm foliar spray only): 2 (6-25% of disease on untreated plants); disease control grading, Venturia inaequalis (apple) (Venturia inaequalis; 40 ppm foliar spray only): 0 (60-100% of disease on untreated plants); disease control grading, Pyricularia oryzae (rice) (Pyricularia oryzae; 40 ppm foliar spray only): 0 (60-100% of disease on untreated plants); disease control grading, Cercospora arachidicola (peanut) (Cercospora arachidicola; 40 ppm foliar spray only): 4; disease control grading, Plasmopara viticola (vine) (Plasmopara viticola; 40 ppm foliar spray only): 4; disease control grading, Phytophthora infestans (tomato) (Phytophthora infestans; 40 ppm foliar spray only): 0 (60-100% of disease on untreated plants)
CO/C=C(/C(=O)OC)c1ccccc1Oc1ncc(C(F)(F)F)cc1[N+](=O)[O-] [Compound 129 (Table I)] | 0 (60-100% of disease on untreated plants) | 4 | 4 | 0 (60-100% of disease on untreated plants) | 0 (60-100% of disease on untreated plants) | 0 (60-100% of disease on untreated plants) | 0 (60-100% of disease on untreated plants) | –
CO/C=C(/C(=O)OC)c1ccccc1Oc1ccc(NC=O)cn1 [Compound 130 (Table I)] | 3 (trace-5% of disease on untreated plants) | 0 (60-100% of disease on untreated plants) | 0 (60-100% of disease on untreated plants) | 0 (60-100% of disease on untreated plants) | 4 | 0 (60-100% of disease on untreated plants) | 0 (60-100% of disease on untreated plants) | –
CO/C=C(/C(=O)OC)c1ccccc1Oc1ccc([N+](=O)[O-])cn1 [Compound 133 (Table I), (E)-methyl 2-[2'-(5"-nitropyridin-2"-yloxy)phenyl]-3-methoxyacrylate] | 4 | 4 | 4 | 4 | – | 4 | 0 (60-100% of disease on untreated plants) | –
CO/C=C(/C(=O)OC)c1ccccc1Oc1cc(F)nc(Cl)c1 [Compound 167 (Table I)] | 4 | 4 | 4 | 3 (trace-5% of disease on untreated plants) | 0 (60-100% of disease on untreated plants) | 4 | – | –
